pIC50: −log10 of the molar value. Read-outs that look alike come from different tables or passages of the source. Some results are limits rather than exact numbers.

For assay [1], the system named is NMRI mice. As to the kind of experiment: Mouse formalin test (second phase) for in vivo efficacy. As to conditions: for ED50 at 20 mg/kg: Mus musculus, po.
Assay [2] deals with T1, NR1a/NR2B NMDA receptor (Rattus norvegicus, UniProt P35439+Q00960).
T1 construct: expressed in transfected cells
The assay is described as follows: Functional NMDA antagonism, fluorimetric intracellular calcium measurement on HEK293 cells expressing NR1a/NR2B. It counts as cell-based. How it is done: Compounds were tested for their inhibitory action on NMDA evoked cytosolic calcium elevations in fluorescent calcium measurements. Studies were performed 48-72 h after addition of the inducing agent. Ketamine (500 μM) was also present during the induction in order to prevent cytotoxicity.
(§1) Assessing the Functional NMDA Antagonist Potency of Compounds on HEK293 cells expressing Recombinant NMDA Receptors Based on Measuring the Intracellular Calcium Concentration Using a Fluorimeter Plate Reader
Since NMDA receptors are known to be permeable to calcium ions upon excitation, the extent of NMDA receptor activation, and its inhibition by functional antagonists can be characterised by measuring the rise in the intracellular calcium concentration following agonist (NMDA) application onto the cells.
The intracellular calcium measurements are carried out on HEK293 cells expressing NR1a and NR2B or NR2A NMDA receptor subunits.
(§2) Loading is stopped by washing twice with the solution used also during the measurement (140 mM NaCl 5 mM KCl, 2 mM CaCl2, 5 mM HEPES [4-(2-hydroxyethyl)-1-piperazineethane-sulfonic acid], 5 mM HEPES—Na, 20 mM glucose, 10 μM glycine, pH=7.4). Then the test compound dissolved in the above solution (90 μl/well) is added. Intracellular calcium measurements are carried out with a plate reader fluorimeter. A rise in Fluo-4-fluorescence that reflects the intracellular calcium concentration is induced by application of 200 μM NMDA. Inhibitory potency of the test compound is assessed by measuring the reduction in the calcium elevation in the presence of different concentrations of the compound.
(§3) Inhibitory potency of a compound at a single concentration point is expressed as percent inhibition of the control NMDA response. For NR1a/NR2B expressing cells concentration-inhibition curves are produced. Sigmoidal concentration-inhibition curves are fitted over the data and IC50 values are defined as the concentration that produces half of the maximal inhibition that could be achieved with the compound. Mean IC50 values are derived from at least three independent experiments. For NR1-3/NR2A expressing cells antagonism of NMDA induced rise in intracellular calcium concentration by compounds of the present invention and reference compounds was tested at 10 and 15 microM concentration, respectively.
(In general: Calcium assays in cells follow changes in intracellular calcium, usually with a dye or a luminescent sensor.)

Assay [3] has as its target T2, NR1-3/NR2A NMDA receptor (Homo sapiens, UniProt Q05586+Q12879).
T2 construct: expressed in transfected cells
The assay is described as follows: Functional NMDA antagonism, fluorimetric intracellular calcium measurement on HEK293 cells expressing NR1-3/NR2A. In kind it is cell-based. As to conditions: NMDA evoked calcium rise, NR1-3/NR2A transfected HEK293 cells; for inhibition at 15 µM: Table 1, 15 uM compound. How it is done:
(1997); Neurochemistry International, 43, 19-29. (2003)]. […] Compounds were tested for their inhibitory action on NMDA evoked cytosolic calcium elevations in fluorescent calcium measurements. Studies were performed 48-72 h after addition of the inducing agent. Ketamine (500 μM) was also present during the induction in order to prevent cytotoxicity.
as §1
Since NMDA receptors are known to be permeable to calcium ions upon excitation, the extent of NMDA receptor activation, and its inhibition by functional antagonists can be characterised by measuring the rise in the intracellular calcium concentration following agonist (NMDA) application onto the cells. Since there is very high sequence homology between rat and human NMDA receptors (99, 95, 97% for NR1, NR2A, and NR2B subunits, respectively), it is believed that there is little, if any, difference in their pharmacological sensitivity.
The intracellular calcium measurements are carried out on HEK293 cells expressing NR1a and NR2B or NR2A NMDA receptor subunits. Cells are plated onto standard 96-well microplates and the cultures are maintained in an atmosphere of 95% air-5% CO2 at 37° C. until testing.
as §2, with “The cells are loaded with a fluorescent Ca^2+-sensitive dye, Fluo-4/AM (2-2.5 μM) prior to testing. Loading” for “Loading”
as §3

The mark [4] stands for this setting: given 15 min before formalin, licking/biting time 20 to 25 min after formalin, >20 means inhibition less than 50% at 20 mg/kg p.o.
The mark [5] stands for this setting: ip, mouse formalin test, read-out: ED50.
Setting [6] is: Table 2, reference compounds, 10 uM compound.
Where [7] appears, read: Table 1, inhibition of calcium rise induced by 200 μM NMDA, NR1a/NR2B transfected HEK293 cells, read-out: NR1a/NR2B IC50.

T2 sequence (Q12879 23-1464, other chains not shown): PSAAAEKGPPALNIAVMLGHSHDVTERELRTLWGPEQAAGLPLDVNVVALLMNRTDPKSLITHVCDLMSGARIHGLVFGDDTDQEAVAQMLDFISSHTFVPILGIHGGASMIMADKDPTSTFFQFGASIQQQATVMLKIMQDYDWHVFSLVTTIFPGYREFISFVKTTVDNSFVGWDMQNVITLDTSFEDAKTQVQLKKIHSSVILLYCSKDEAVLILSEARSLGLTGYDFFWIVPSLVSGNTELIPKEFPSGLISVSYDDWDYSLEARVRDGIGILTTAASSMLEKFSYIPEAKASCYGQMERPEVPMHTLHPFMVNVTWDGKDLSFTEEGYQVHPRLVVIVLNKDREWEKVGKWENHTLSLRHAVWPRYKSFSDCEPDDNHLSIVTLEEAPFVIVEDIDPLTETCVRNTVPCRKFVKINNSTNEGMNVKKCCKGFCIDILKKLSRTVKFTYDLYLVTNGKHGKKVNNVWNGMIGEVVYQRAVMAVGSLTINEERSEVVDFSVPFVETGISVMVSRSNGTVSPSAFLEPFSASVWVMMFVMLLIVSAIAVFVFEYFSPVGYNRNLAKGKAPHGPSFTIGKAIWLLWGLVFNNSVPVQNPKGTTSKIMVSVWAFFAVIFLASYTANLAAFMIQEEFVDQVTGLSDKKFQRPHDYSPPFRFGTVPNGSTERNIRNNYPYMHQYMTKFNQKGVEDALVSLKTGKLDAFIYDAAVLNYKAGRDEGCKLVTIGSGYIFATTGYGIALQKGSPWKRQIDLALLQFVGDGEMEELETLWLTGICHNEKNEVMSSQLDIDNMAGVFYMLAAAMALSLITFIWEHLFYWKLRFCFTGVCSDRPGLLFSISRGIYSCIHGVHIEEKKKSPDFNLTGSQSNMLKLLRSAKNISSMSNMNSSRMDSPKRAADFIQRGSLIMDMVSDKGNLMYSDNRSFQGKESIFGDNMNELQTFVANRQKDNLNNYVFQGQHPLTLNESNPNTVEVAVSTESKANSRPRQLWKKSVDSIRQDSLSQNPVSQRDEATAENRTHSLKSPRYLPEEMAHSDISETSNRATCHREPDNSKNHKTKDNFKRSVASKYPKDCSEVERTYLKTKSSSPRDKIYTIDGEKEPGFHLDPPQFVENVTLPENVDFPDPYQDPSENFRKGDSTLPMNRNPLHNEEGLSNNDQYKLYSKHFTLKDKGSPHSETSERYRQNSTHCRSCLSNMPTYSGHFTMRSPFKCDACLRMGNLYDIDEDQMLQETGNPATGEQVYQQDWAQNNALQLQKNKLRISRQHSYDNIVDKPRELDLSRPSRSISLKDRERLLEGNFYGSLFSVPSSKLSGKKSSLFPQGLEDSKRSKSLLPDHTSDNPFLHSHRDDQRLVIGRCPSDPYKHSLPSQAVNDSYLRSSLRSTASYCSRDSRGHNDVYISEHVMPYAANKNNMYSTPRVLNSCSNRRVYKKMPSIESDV
T1 sequence (Q00960 27-1482, other chains not shown): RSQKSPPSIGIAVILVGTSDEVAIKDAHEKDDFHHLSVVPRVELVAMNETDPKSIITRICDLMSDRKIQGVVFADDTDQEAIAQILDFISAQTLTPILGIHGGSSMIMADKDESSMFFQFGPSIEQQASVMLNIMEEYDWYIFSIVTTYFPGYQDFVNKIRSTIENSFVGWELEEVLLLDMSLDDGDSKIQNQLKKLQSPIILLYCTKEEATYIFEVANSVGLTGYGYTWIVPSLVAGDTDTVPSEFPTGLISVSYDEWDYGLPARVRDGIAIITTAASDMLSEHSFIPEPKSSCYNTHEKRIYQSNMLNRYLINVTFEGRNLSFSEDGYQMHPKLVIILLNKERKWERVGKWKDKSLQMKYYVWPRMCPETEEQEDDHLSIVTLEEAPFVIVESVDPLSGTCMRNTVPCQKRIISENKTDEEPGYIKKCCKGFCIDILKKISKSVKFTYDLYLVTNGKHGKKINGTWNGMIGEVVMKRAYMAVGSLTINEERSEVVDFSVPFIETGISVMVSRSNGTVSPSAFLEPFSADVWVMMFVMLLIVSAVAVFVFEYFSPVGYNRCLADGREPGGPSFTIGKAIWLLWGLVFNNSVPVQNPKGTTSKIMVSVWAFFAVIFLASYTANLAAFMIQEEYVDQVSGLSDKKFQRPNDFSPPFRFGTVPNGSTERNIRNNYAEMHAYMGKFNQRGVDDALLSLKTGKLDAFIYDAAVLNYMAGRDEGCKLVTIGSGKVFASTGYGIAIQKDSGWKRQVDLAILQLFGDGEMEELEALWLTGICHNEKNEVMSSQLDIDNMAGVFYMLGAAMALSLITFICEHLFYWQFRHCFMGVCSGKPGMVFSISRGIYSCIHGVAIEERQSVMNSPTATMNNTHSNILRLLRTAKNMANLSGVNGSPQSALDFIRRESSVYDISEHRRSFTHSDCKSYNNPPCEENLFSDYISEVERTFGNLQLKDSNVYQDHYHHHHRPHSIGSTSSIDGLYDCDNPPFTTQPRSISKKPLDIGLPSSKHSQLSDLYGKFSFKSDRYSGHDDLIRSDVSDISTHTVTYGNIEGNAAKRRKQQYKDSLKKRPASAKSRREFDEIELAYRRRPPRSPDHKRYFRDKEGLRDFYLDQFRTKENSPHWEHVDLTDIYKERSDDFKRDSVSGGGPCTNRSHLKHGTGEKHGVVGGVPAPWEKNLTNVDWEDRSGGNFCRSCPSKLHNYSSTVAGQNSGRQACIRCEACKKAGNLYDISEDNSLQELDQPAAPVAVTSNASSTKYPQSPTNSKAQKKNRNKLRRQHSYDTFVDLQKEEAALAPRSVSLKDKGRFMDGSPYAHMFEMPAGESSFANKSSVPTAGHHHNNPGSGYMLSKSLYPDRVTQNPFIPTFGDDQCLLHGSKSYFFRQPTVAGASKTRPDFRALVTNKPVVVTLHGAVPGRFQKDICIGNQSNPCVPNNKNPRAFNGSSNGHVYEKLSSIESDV

Turning to `O=c1[nH]c2ccc([S+]([O-])CCN3CCC(Cc4ccc(F)cc4)CC3)cc2o1` (centres unmarked) [CI-1041, 6-{2-[4-(4-fluoro-benzyl)-piperidin-1-yl]-ethanesulfinyl}-3H-benzooxazol-2-one], in assay [1] (setting [4]), the ED50 at 20 mg/kg was found to be 2.4 mg/kg.

Molecule `C[C@@H]([C@@H](O)c1ccc(O)cc1)N1CCC(O)(c2ccccc2)CC1` [CP 101,606, (1S,2S)-1-(4-hydroxyphenyl)-2-(4-hydroxy-4-phenylpiperidine-1-yl)-1-propanol] showed a 50% effective dose (ED50) at 20 mg/kg in assay [1] (setting [4]) above 20 mg/kg.

On to `Cc1ccc(CC2(O)CCN(CCOc3ccc(O)cc3)CC2)cc1` [Co-101244, 1-[2-(4-hydroxyphenoxy)ethyl]-4-hydroxy-4-(4-methylbenzyl)piperidine], for which, in assay [1] (setting [4]), the ED50 at 20 mg/kg was above 20 mg/kg. The ED50 in assay [1] (setting [5]) stood at 5.9 mg/kg.

Turning to `O=C(CCN1CCC(Cc2ccc(F)cc2)CC1)c1ccc2[nH]c(=O)oc2c1` [EMD 95885, reference compound], the ED50 in assay [1] (p.o., given 15 min before formalin, licking/biting time 20 to 25 min after formalin, >20 means inhibition less than 50% at 20 mg/kg p.o.) came out at 3.7 mg/kg. Moreover, the pIC50 in assay [2] (Table 2, reference compounds, inhibition of calcium rise induced by 200 μM NMDA, NR1a/NR2B transfected HEK293 cells, read-out: NR1a/NR2B IC50) was 7.32. Further, the “NR1-3/NR2A % inhibition at 10 uM” value in assay [3] (setting [6]) is 0.1%.

In the case of `O=C(NC(=O)N1CCC(Cc2ccccc2)CC1)c1ccc(O)cc1` [Example 1, 4-Benzyl-piperidine-1-carboxylic Acid 4-hydroxy-benzoylamide], the pIC50 in assay [2] (setting [7]) is 7.55. In assay [3], the inhibition at 15 µM was 2.6%.

In the case of `COc1ccc(CC2CCN(C(=O)NC(=O)c3ccc(O)cc3)CC2)cc1` [Example 2, 4-(4-Methoxy-benzyl)-piperidine-1-carboxylic Acid 4-hydroxy-benzoylamide], the pIC50 in assay [2] (setting [7]) was 8.12. Moreover, the inhibition at 15 µM in assay [3] is -5.7%.

Take `O=C(NC(=O)N1CCC(Cc2ccccc2)CC1)c1ccc2[nH]c(=O)oc2c1` [Example 7, 4-Benzyl-piperidine-1-carboxylic Acid (2-oxo-2,3-dihydro-benzooxazole-6-carbonyl)-amide]: the pIC50 in assay [2] (setting [7]) was 7.22. In addition, the inhibition at 15 µM in assay [3] is -6.7%.

For the molecule `COc1cccc(CC2CCN(C(=O)NC(=O)c3ccc(O)cc3)CC2)c1` [Example 26, 4-(3-Methoxy-benzyl)-piperidine-1-carboxylic Acid 4-hydroxy-benzoylamide], the pIC50 in assay [2] (setting [7]) is 7.23. In assay [3], the inhibition at 15 µM is -0.9%.

Consider `Cc1ccc(CCC2CCN(C(=O)NC(=O)c3ccc(O)cc3)CC2)cc1` [Example 27, 4-[2-(p-Tolyl)-ethyl]-piperidine-1-carboxylic acid 4-hydroxy-benzoylamide], for which, in assay [2] (setting [7]), the pIC50 is 7.84. In addition, the inhibition at 15 µM in assay [3] stood at 11.4%.

Take `O=C(NC(=O)N1CCC(CSc2ccccc2)CC1)c1ccc(O)cc1` [Example 28, 4-(Phenylthio-methyl)-piperidine-1-carboxylic Acid 4-hydroxy-benzoylamide]: the pIC50 in assay [2] (setting [7]) is 7.23. In addition, the inhibition at 15 µM in assay [3] was -2.9%.

Molecule `C[C@@H](CN1CCC(Cc2ccccc2)CC1)[C@@H](O)c1ccc(O)cc1` [Ro 25.6981, R—(R*,S*)-1-(4-hydroxyphenyl)-2-methyl-3-[4-(phenylmethyl)piperidin-1-yl]-1-propanol, reference compound] registered an ED50 at 20 mg/kg in assay [1] (setting [4]) above 20 mg/kg. Besides, the ED50 in assay [1] (setting [5]) stood at 5.1 mg/kg. Further, in assay [2], the pIC50 was 7.24. In addition, in assay [3] (setting [6]), the inhibition at 10 µM turned out to be 1%.

The term ED50 denotes the dose that gives a 50% effect, or the effect in half of the subjects. The term inhibition denotes the change of the read-out against control, counted positive when it falls.

The values are drawn from patent US20090170901A1, “Benzoyl Urea Derivatives” (priority 2004, published 2009).
